Laboratory results reported in US7763615B2, “Ecteinascidin analogs for use as antitumour agents” (priority 2001, dated 2010).

Legend:
[1] = system: NRK-52E, normal rat kidney cells; settings: 24 h
IGROV = test: cells; assay type: cell-based
Excerpt: (§1) The finality of these assays is to interrupt the growth of a “in vitro” tumor cell culture by means of a continued exhibition of the cells to the sample to be testing.
(§2) A colorimetric type of assay, using sulphorhodamine B (SRB) reaction has been adapted for a quantitative measurement of cell growth and viability [following the technique described by Philip Skehan, et al. (1990), New colorimetric cytotoxicity assay for anticancer drug screening, J. Natl. Cancer Inst., 82:1107-1112]
(§3) This form of the assay employs 96 well cell culture microplates of 9 mm diameter (Faircloth, 1988; Mosmann, 1983). Most of the cell lines are obtained from American Type Culture Collection (ATCC) derived from different human cancer types.
(§4) Cells are maintained in RPMI 1640 10% FBS, supplemented with 0.1 g/l penicillin and 0.1 g/l streptomycin sulphate and then incubated at 37° C., 5% CO2 and 98% humidity. For the experiments, cells were harvested from subconfluent cultures using trypsin and resuspended in fresh medium before plating.
(§5) Cells are seeded in 96 well microtiter plates, at 5×10^3 cells per well in aliquots of 195 μl medium, and they are allowed to attach to the plate surface by growing in drug free medium for 18 hours. Afterward, samples are added in aliquots of 5 μl in a ranging from 10 to 10^−8 μg/ml, dissolved in DMSO/EtOH/PBS (0.5:0.5:99). After 48 hours exposure, the antitumor effect are measured by the SRB methodology: cells are fixed by adding 50 μl of cold 50% (wt/vol) trichloroacetic acid (TCA) and incubating for 60 minutes at 4° C. Plates are washed with deionized water and dried. One hundred μl of SRB solution (0.4% wt/vol in 1% acetic acid) is added to each microtiter well and incubated for 10 minutes at room temperature. Unbound SRB is removed by washing with 1% acetic acid. Plates are air dried and bound stain is solubilized with Tris buffer. Optical densities are read on a automated spectrophotometric plate reader at a single wavelength of 490 nm.
(§6) The values for mean+/− SD of data from triplicate wells are calculated. Some parameters for cellular responses can be calculated: GI=growth inhibition, TGI=total growth inhibition (cytostatic effect) and LC=cell killing (cytotoxic effect).

LNCAP = test: cells; assay type: cell-based; settings: LNCAP, 48 hours exposure, SRB
Excerpt: as §1, §2, §3, §4, §5, §6

IGROV-ET = test: cells; assay type: cell-based; settings: IGROV-ET, 48 hours exposure, SRB
Excerpt: as §1, §2, §3, §4, §5, §6

A549 = test: cells; assay type: cell-based; settings: A549, 48 hours exposure, SRB
Excerpt: as §1, §2, §3, §4, §5, §6

MEL-28 = test: cells; assay type: cell-based; settings: Homo sapiens, SK-MEL-28, 48 h
Excerpt: as §1, §2, §3, §4, §5, §6

PANC-1 = test: cells; assay type: cell-based; settings: PANC-1, 48 hours exposure, SRB
Excerpt: as §1, §2, §3, §4, §5, §6

LOVO-DOX = test: cells; assay type: cell-based; settings: LOVO-DOX, 48 hours exposure, SRB
Excerpt: as §1, §2, §3, §4, §5, §6

LOVO = test: cells; assay type: cell-based; settings: LOVO, 48 hours exposure, SRB
Excerpt: as §1, §2, §3, §4, §5, §6

DU145 = test: cells; assay type: cell-based; settings: DU145, 48 hours exposure, SRB
Excerpt: as §1, §2, §3, §4, §5, §6

HT29 = test: cells; assay type: cell-based
Excerpt: as §1, §2, §3, §4, §5, §6

SK-BR3 = test: cells; assay type: cell-based; settings: SK-BR3, 48 hours exposure, SRB
Excerpt: as §1, §2, §3, §4, §5, §6

K562 = test: cells; assay type: cell-based
Excerpt: as §1, §2, §3, §4, §5, §6

[2] = system: L8, normal rat skeletal muscle cells; settings: 24 h
[3] = system: AML-12, normal mouse liver cells; settings: 24 h
[4] = system: FDC-P1, normal mouse myelogeous stem cells; settings: 24 h
Description: In order to assess the cytotoxicity of the drugs to normal cells, we used 96 well plates plated at a density of 5000 cells per well (except for the FDC-P1 which were plated at 12,000 cells per well) with normal cell lines (ATCC, Table 1) maintained as per the directions of the ATCC: AML-12, normal mouse liver cells; NRK-52E, normal rat kidney cells; L8, normal rat skeletal muscle cells; FDC-P1, normal mouse myelogeous stem cells; and H9c2 (2-1), normal rat cardiac muscle cells. The cells in each plate were permitted to settle overnight before adding the test drug.
To each well (100 μl medium) 10 μl of drug in media was added at varying concentrations (1×10-10-0.01 mg/ml final concentration) and further incubated overnight at 37° C. with 5% CO2. After 24 h the following assays were performed. All experiments were repeated at least 3 times and were assayed in duplicate.
MTS assay (CellTiter 96 aqueous) was performed according to the manufacturer's (Promega) directions (for all cell types). Cell viability (mitochondrial activity) is determined via enzymatic conversion of the formazan substrate.

H-MEC-1 = test: Inhibition of cells growth by colorimetric assay (SRB), H-MEC-1; assay type: cell-based; settings: H-MEC-1, 48 hours exposure, SRB
Excerpt: as §1, §2, §3, §4, §5, §6

SK-OV3 = test: Inhibition of cells growth by colorimetric assay (SRB), SK-OV3; assay type: cell-based; settings: SK-OV3, 48 hours exposure, SRB
Excerpt: as §1, §2, §3, §4, §5, §6

Compound: COc1c(C)cc2c(c1O)[C@@H]1C3[C@@H]4SC[C@]5(C(=O)COC[C@@H](c6c7c(c(C)c(OC(C)=O)c64)OCO7)N3[C@@H](O)[C@H](C2)N1C)c1[nH]c2ccccc2c1CCN5C (stereo partly shown) [Compound 39]
- Kidney [1]: 9.88E−05
- GI50 (IGROV; 48 hours exposure, SRB): 43 nM
- TGI (IGROV; 48 hours exposure, SRB): 8.15E−08 Molar
- CC50 (IGROV; read-out: LC50, 48 hours exposure, SRB): 2320 nM
- GI50 (LNCAP): 20.5 nM
- TGI (LNCAP): 4.41E−08 Molar
- CC50 (LNCAP; read-out: LC50): 94.7 nM
- GI50 (IGROV-ET): 82.5 nM
- TGI (IGROV-ET): 4.04E−06 Molar
- CC50 (IGROV-ET; read-out: LC50): 13000 nM
- TGI (A549): 8.74E−08 Molar
- GI50 (A549; read-out: GI50): 46.7 nM
- CC50 (A549; read-out: LC50): 2320 nM
- GI50 (MEL-28; MEL-28, 48 hours exposure, SRB): 34.7 nM
- IC (TGI) (MEL-28; MEL-28, 48 hours exposure, SRB): 69.1 nM
- CC50 (MEL-28; read-out: LC50, MEL-28, 48 hours exposure, SRB): 181 nM
- GI50 (PANC-1): 60.1 nM
- TGI (PANC-1): 9.22E−07 Molar
- CC50 (PANC-1; read-out: LC50): 13000 nM
- GI50 (LOVO-DOX): 234 nM
- TGI (LOVO-DOX): 9.94E−07 Molar
- CC50 (LOVO-DOX; read-out: LC50): 13000 nM
- GI50 (LOVO): 32.1 nM
- TGI (LOVO): 6.22E−08 Molar
- CC50 (LOVO; read-out: LC50): 120 nM
- GI50 (DU145): 55.9 nM
- TGI (DU145): 2.03E−06 Molar
- CC50 (DU145; read-out: LC50): 13000 nM
- GI50 (HT29; HT29, 48 hours exposure, SRB): 48.5 nM
- TGI (HT29; HT29, 48 hours exposure, SRB): 1.73E−05 Molar
- CC50 (HT29; Homo sapiens, HT-29, 48 h, read-out: LC50, HT29, 48 hours exposure, SRB): 13000 nM
- GI50 (SK-BR3): 49.9 nM
- TGI (SK-BR3): 1.10E−07 Molar
- CC50 (SK-BR3; read-out: LC50): 944 nM
- CC50 (K562; Homo sapiens, K562, 48 h, read-out: LC50, K562, 48 hours exposure, SRB): 79.2 nM
- GI50 (K562; K562, 48 hours exposure, SRB): 25.1 nM
- TGI (K562; K562, 48 hours exposure, SRB): 4.46E−08 Molar
- Skeletal [2]: 4.58E−07
- Liver [3]: 1.14E−06
- Myelo [4]: 4.10E−07
- GI50 (H-MEC-1): 58.1 nM
- TGI (H-MEC-1): 1.46E−06 Molar
- CC50 (H-MEC-1; read-out: LC50): 13000 nM
- GI50 (SK-OV3): 62.4 nM
- TGI (SK-OV3): 3.19E−07 Molar
- CC50 (SK-OV3; read-out: LC50): 13000 nM
